We go through 15 molecules from ChEMBL document CHEMBL1201862, “PubChem BioAssay data set” (2004).

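Results reflect a 48-hour exposure of cells in 96-well plates to compound at five concentrations. GI50 is the concentration that inhibits growth by half.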 The source made the active and inactive calls. No stated cut-off is given here; in the data, active = GI50 up to about 1.1 µM and inactive = higher. Some results are limits rather than exact numbers.

Holding throughout (assay): NCI-60 cell line screen, 48 h
For test [1], the system named is OVCAR-8.
Test [2] has as its system NCI-H460.
Test [3] has as its system OVCAR-3.
For test [4], the system named is HCC 2998.
Test [5] concerns TK-10.
Test [6] deals with SNB-75.
Test [7] concerns 786-0.
Test [8] concerns U-251.
The test system of test [9] is SK-MEL-28.
In test [10] the test system is HCT-15.
The test system of test [11] is NCI-H522.
In test [12] the test system is CAKI-1.
Test [13] deals with CCRF-CEM.
The subject of test [14] is OVCAR-5.
Test [15] relates to NCI-H226.
The test system of test [16] is SR.

As for `NC1CCCCC1.O=C(O)C1(P(=O)(O)O)CC1`, the GI50 is > 100 µM (inactive) in test [1]; > 100 µM (inactive) in [2]; > 100 µM (inactive) in test [3]; > 100 µM (inactive) in test [4]; > 100 µM (inactive) in test [5]; 92.3 µM (inactive) in test [6]. Moreover, the GI50 in test [7] was > 100 µM (inactive); in [8] it was > 100 µM (inactive); in test [9] it was > 100 µM (inactive); in test [10], over 100 µM; in test [11], > 100 µM (inactive); in [12], > 100 µM (inactive). Moreover, the GI50 in test [13] is > 100 µM (inactive).

As for `CC(=O)OC1COC(n2c(=S)n(-c3ccc(C)cc3)c(=O)c3ccccc32)C(OC(C)=O)C1OC(C)=O` (stereo not given), the GI50 is 68.2 µM (inactive) in test [1]; > 100 µM (inactive) in [2]; > 100 µM (inactive) in test [3]; > 100 µM (inactive) in test [4]; 63.2 µM (inactive) in test [6]; > 100 µM (inactive) in [7]. Further, the GI50 in test [8] was > 100 µM (inactive); in [14], > 100 µM (inactive); in [9], > 100 µM (inactive); in [10] it was over 100 µM; in test [11], > 100 µM (inactive); in [12], > 100 µM (inactive). The GI50 in [15] is > 100 µM (inactive).

Turning to `O=S(=O)(N/N=C/c1cccc(/C=N/NS(=O)(=O)c2ccccc2)c1)c1ccccc1`, the GI50 in test [1] was 55.5 µM (inactive); in test [16], 58.1 µM (inactive); in [2] it was 68.7 µM (inactive); in [3] it was 54.8 µM (inactive); in test [4], > 100 µM (inactive); in test [5] it was 47.8 µM (inactive). For the same molecule, the GI50 is > 100 µM (inactive) in [6]; > 100 µM (inactive) in test [7]; 69.5 µM (inactive) in test [8]; > 100 µM (inactive) in [14]; 88.7 µM (inactive) in test [9]; 80.5 µM in test [10]. In addition, the GI50 in test [15] was > 100 µM (inactive); in test [13], 76.4 µM (inactive).

Consider `CC(C)OC(=O)c1cccnc1/C=N/O`, for which the GI50 in test [1] is > 100 µM (inactive); in test [2] it was 84.1 µM (inactive); in test [3], > 100 µM (inactive); in test [4] it was > 100 µM (inactive); in test [5], > 100 µM (inactive); in test [6] it was > 100 µM (inactive). The GI50 is > 100 µM (inactive) in test [7]; > 100 µM (inactive) in test [8]; > 100 µM (inactive) in [14]; over 100 µM in [10]; > 100 µM (inactive) in test [11]; > 100 µM (inactive) in [12]. The GI50 in [15] and in test [13] was > 100 µM (inactive) throughout.

Consider `CCC1CCCCN1CC(C(C)=O)C(c1ccccc1)c1c(O)c2ccccc2oc1=O` (stereo not given), for which the GI50 in [1] was > 100 µM (inactive); in [16], 80.7 µM (inactive); in [2] it was > 100 µM (inactive); in test [3] it was > 100 µM (inactive); in [5], > 100 µM (inactive); in test [6], 6.87 µM (inactive). For the same molecule, the GI50 in test [7] is > 100 µM (inactive); in test [8], > 100 µM (inactive); in test [14], 50.7 µM (inactive); in test [9] it was > 100 µM (inactive); in test [10] it was over 100 µM; in test [11] it was > 100 µM (inactive). For the same molecule, the figures for the GI50 in test [12], in test [15] and in test [13] were > 100 µM (inactive), 18 µM (inactive) and > 100 µM (inactive), respectively.

Consider `N#C/C(=C1\SC(C(N)=O)=C(N)N1c1ccccc1)c1nc2ccccc2[nH]1`, for which the GI50 in test [1] was > 100 µM (inactive); in test [2] it was > 100 µM (inactive); in test [3], > 100 µM (inactive); in test [5], 87.9 µM (inactive); in [6], 48.2 µM (inactive); in test [7], > 100 µM (inactive). In addition, the GI50 was > 100 µM (inactive) in test [8]; > 100 µM (inactive) in [14]; > 100 µM (inactive) in test [9]; over 100 µM in test [10]; > 100 µM (inactive) in test [11]; > 100 µM (inactive) in [12]. Moreover, the GI50 in test [15] and in [13] was > 100 µM (inactive) throughout.

Take `S=C1ON=C(c2ccccc2)/C1=C/Nc1ccccc1`: the GI50 in test [1], in test [2], in test [4], in [5], in test [6] and in [7] was > 100 µM (inactive) throughout. Moreover, the GI50 in test [8] is > 100 µM (inactive); in test [14], > 100 µM (inactive); in test [9], > 100 µM (inactive); in test [10], 78.9 µM; in [11], > 100 µM (inactive); in [12], > 100 µM (inactive). For the same molecule, the GI50 in test [13] is > 100 µM (inactive).

As to `O=c1c(C(c2ccc([N+](=O)[O-])cc2)c2c(O)c3ccccc3n(-c3ccccc3)c2=O)c(O)c2ccccc2n1-c1ccccc1`, the GI50 in test [1] is 14.9 µM (inactive); in test [16] it was 9.98 µM (inactive); in test [3] it was 24.1 µM (inactive); in [4] it was 12.4 µM (inactive); in [5], 44 µM (inactive); in [7], 11.6 µM (inactive). Besides, the GI50 is 10.2 µM (inactive) in test [8]; 51.9 µM (inactive) in [14]; 16.5 µM (inactive) in [9]; 10.1 µM in test [10]; 22.2 µM (inactive) in test [11]; 44.4 µM (inactive) in test [12]. Further, the GI50 is 24.1 µM (inactive) in test [15] and 1.51 µM (inactive) in [13].

As for `CNC(C)(C)Cc1ccc(Cl)cc1`, the GI50 in [1], in test [2], in test [3], in test [4], in [5] and in [6] was > 100 µM (inactive) in each case. For the same molecule, the GI50 in test [7], in [8], in test [9], in [11], in test [12] and in test [13] was > 100 µM (inactive) each time.

With `NC(=O)C(=O)C1C(=O)N(c2ccccc2)N=C1N` (stereo not given), the GI50 in test [1], in [16], in [2], in test [3], in [4] and in test [5] was > 100 µM (inactive) throughout. The GI50 was > 100 µM (inactive) in test [6]; > 100 µM (inactive) in [7]; > 100 µM (inactive) in [14]; > 100 µM (inactive) in [9]; over 100 µM in test [10]; > 100 µM (inactive) in test [11]. Further, the GI50 in test [12] and in [15] was > 100 µM (inactive) in each case.

For `CC(C)C(C(=O)O)N(CC1(O)OCC(O)C(O)C1O)N=O` (stereo not given), the GI50 in test [1], in test [2], in [3], in test [4], in test [5] and in [6] was > 100 µM (inactive) in each case. Moreover, the GI50 in test [7], in test [8], in test [14], in [9], in [11] and in [13] was > 100 µM (inactive) each time.

As to `CSc1nc2c(nc(N)n2C2OC(COC(C)=O)C(OC(C)=O)C(OC(C)=O)C2OC(C)=O)c(=O)n1C` (stereo not given), the GI50 in [1], in [2], in test [3], in test [4], in [5] and in test [6] was > 100 µM (inactive) each time. The GI50 in [7] was > 100 µM (inactive); in test [8], > 100 µM (inactive); in [14] it was > 100 µM (inactive); in test [10], over 100 µM; in [12], > 100 µM (inactive); in test [15], > 100 µM (inactive). The GI50 in test [13] is > 100 µM (inactive).

For `CC(C)(C)NCC(COc1ccc([N+](=O)[O-])cc1)OP(c1ccccc1)c1ccccc1` (stereo not given), the GI50 in [1] was 34.8 µM (inactive); in test [2], 35.8 µM (inactive); in test [3], 34 µM (inactive); in [4], 42.4 µM (inactive); in test [5] it was 43.9 µM (inactive); in [6] it was 33.7 µM (inactive). For the same molecule, the GI50 in test [7] was 29 µM (inactive); in [8], 41.5 µM (inactive); in [14] it was 82.4 µM (inactive); in [9] it was 55 µM (inactive); in test [10] it was 37.8 µM; in test [11], 19.3 µM (inactive). The GI50 in test [12] is 28.8 µM (inactive); in test [15], 29 µM (inactive); in [13], 27.8 µM (inactive).

`Clc1ccc2c(c1)-c1c3c(nn1-c1ccccc1)-c1ccccc1SC3O2` (stereo not given): the GI50 is > 100 µM (inactive) in [1]; > 100 µM (inactive) in test [2]; > 100 µM (inactive) in test [3]; > 100 µM (inactive) in test [4]; > 100 µM (inactive) in test [5]; 82.6 µM (inactive) in test [6]. In addition, the GI50 was > 100 µM (inactive) in test [7]; > 100 µM (inactive) in test [8]; > 100 µM (inactive) in test [14]; > 100 µM (inactive) in [9]; 29 µM (inactive) in test [11]; 44.9 µM (inactive) in [13].

With `NC1CCC2(O)c3ccccc3C2C1` (stereo not given), the GI50 in test [1], in [16], in test [2], in test [5], in [6] and in [7] was > 100 µM (inactive) each time. Moreover, the GI50 in test [8] was > 100 µM (inactive); in [9], > 100 µM (inactive); in test [10], over 100 µM; in test [11], > 100 µM (inactive); in [15] it was > 100 µM (inactive); in test [13], > 100 µM (inactive).
